{"source": "PubChem BioAssay AID1259409", "about": "(Chemical Carcinogenesis Research Information System (CCRIS), 2018)", "origin": "cited, not measured here", "tested_on": "rodent chemically induced tumor inhibition, incidence and multiplicity", "assay": "CCRIS tumor inhibitor studies"}
{"smiles": "O=C(OC[C@@H]1O[C@H](OC(=O)c2cc(O)c(O)c(OC(=O)c3cc(O)c(O)c(O)c3)c2)[C@@H](OC(=O)c2cc(O)c(O)c(OC(=O)c3cc(O)c(O)c(O)c3)c2)[C@H](OC(=O)c2cc(O)c(O)c(OC(=O)c3cc(O)c(O)c(O)c3)c2)[C@H]1OC(=O)c1cc(O)c(O)c(OC(=O)c2cc(O)c(O)c(O)c2)c1)c1cc(O)c(O)c(OC(=O)c2cc(O)c(O)c(O)c2)c1", "values": [{"measurement": "tumour outcome (control, treated, inhibition, significance)", "setting": "Carcinogen: 2,2'-DIHYDROXY-DI-N-PROPYLNITROSAMINE, 53609-64-6, N-ETHYL-N-HYDROXYETHYLNITROSAMINE, 13147-25-6, 3,2'-DIMETHYL-4-AMINO-, Carcinogen: 2,2'-DIHYDROXY-DI-N-PROPYLNITROSAMINE, 53609-64-6, N-ETHYL-N-HYDROXYETHYLNITROSAMINE, 13147-25-6, 3,2'-DIMETHYL-4-AMINO-, Dose [Inhibitor]: 0, 1% IN DIET FOR 32 WK BEGINNING 1 WK POST CARCINOGEN TREATMENT (STUDY DURATION: 36 WK), Route [Inhibitor]: ORAL, Species: RAT, Strain/Sex: F344/MALE, Target Tissue: Type of Lesion: KIDNEY: TRANSITIONAL CELL CARCINOMA, Dose [Carcinogen]: 1000 MG/KG BW DHPN TWICE, 1500 MG/KG BW EHEN TWICE, 75 MG/KG BW DMAB 3 TIMES ADMINISTERED OVER FIRST 3 WK, Promoter: NONE USED", "result": "1/14 (7%), 0/12 (0%), 100%, not significant"}, {"measurement": "tumour outcome (control, treated, inhibition, significance)", "setting": "Carcinogen: 2,2'-DIHYDROXY-DI-N-PROPYLNITROSAMINE, 53609-64-6, N-ETHYL-N-HYDROXYETHYLNITROSAMINE, 13147-25-6, 3,2'-DIMETHYL-4-AMINO-, Carcinogen: 2,2'-DIHYDROXY-DI-N-PROPYLNITROSAMINE, 53609-64-6, N-ETHYL-N-HYDROXYETHYLNITROSAMINE, 13147-25-6, 3,2'-DIMETHYL-4-AMINO-, Dose [Inhibitor]: 0, 1% IN DIET FOR 32 WK BEGINNING 1 WK POST CARCINOGEN TREATMENT (STUDY DURATION: 36 WK), Route [Inhibitor]: ORAL, Species: RAT, Strain/Sex: F344/MALE, Target Tissue: Type of Lesion: LARGE INTESTINE: ADENOMA, Dose [Carcinogen]: 1000 MG/KG BW DHPN TWICE, 1500 MG/KG BW THEN TWICE, 75 MG/KG BW DMAB 3 TIMES ADMINISTERED OVER FIRST 3 WK, Dose [Carcinogen]: 1000 MG/KG BW DHPN TWICE, 1500 MG/KG BW THEN TWICE, 75 MG/KG BW DMAB 3 TIMES ADMINISTERED OVER FIRST 3 WK, Promoter: NONE USED", "result": "7/14 (50%), 2/12 (17%), 66%, not significant"}, {"measurement": "tumour outcome (control, treated, inhibition, significance)", "setting": "Carcinogen: 2,2'-DIHYDROXY-DI-N-PROPYLNITROSAMINE, 53609-64-6, N-ETHYL-N-HYDROXYETHYLNITROSAMINE, 13147-25-6, 3,2'-DIMETHYL-4-AMINO-, Carcinogen: 2,2'-DIHYDROXY-DI-N-PROPYLNITROSAMINE, 53609-64-6, N-ETHYL-N-HYDROXYETHYLNITROSAMINE, 13147-25-6, 3,2'-DIMETHYL-4-AMINO-, Dose [Inhibitor]: 0, 1% IN DIET FOR 32 WK BEGINNING 1 WK POST CARCINOGEN TREATMENT (STUDY DURATION: 36 WK), Route [Inhibitor]: ORAL, Species: RAT, Strain/Sex: F344/MALE, Target Tissue: Type of Lesion: LARGE INTESTINE: CARCINOMA, Dose [Carcinogen]: 1000 MG/KG BW DHPN TWICE, 1500 MG/KG BW THEN TWICE, 75 MG/KG BW DMAB 3 TIMES ADMINISTERED OVER FIRST 3 WK, Promoter: NONE USED", "result": "3/14 (21%), 1/12 (8%), 62%, not significant"}, {"measurement": "tumour outcome (control, treated, inhibition, significance)", "setting": "Carcinogen: 2,2'-DIHYDROXY-DI-N-PROPYLNITROSAMINE, 53609-64-6, N-ETHYL-N-HYDROXYETHYLNITROSAMINE, 13147-25-6, 3,2'-DIMETHYL-4-AMINO-, Carcinogen: 2,2'-DIHYDROXY-DI-N-PROPYLNITROSAMINE, 53609-64-6, N-ETHYL-N-HYDROXYETHYLNITROSAMINE, 13147-25-6, 3,2'-DIMETHYL-4-AMINO-, Dose [Inhibitor]: 0, 1% IN DIET FOR 32 WK BEGINNING 1 WK POST CARCINOGEN TREATMENT (STUDY DURATION: 36 WK), Route [Inhibitor]: ORAL, Species: RAT, Strain/Sex: F344/MALE, Target Tissue: Type of Lesion: LIVER: HEPATOCELLULAR CARCINOMA, Dose [Carcinogen]: 1000 MG/KG BW DHPN TWICE, 1500 MG/KG BW THEN, 75 MG/KG BW DMAB 3 TIMES ADMINISTERED OVER FIRST 3 WKS, Promoter: NONE USED", "result": "6/14 (43%), 3/12 (25%), 42%, not significant"}, {"measurement": "tumour outcome (control, treated, inhibition, significance)", "setting": "Carcinogen: 2,2'-DIHYDROXY-DI-N-PROPYLNITROSAMINE, 53609-64-6, N-ETHYL-N-HYDROXYETHYLNITROSAMINE, 13147-25-6, 3,2'-DIMETHYL-4-AMINO-, Carcinogen: 2,2'-DIHYDROXY-DI-N-PROPYLNITROSAMINE, 53609-64-6, N-ETHYL-N-HYDROXYETHYLNITROSAMINE, 13147-25-6, 3,2'-DIMETHYL-4-AMINO-, Dose [Inhibitor]: 0, 1% IN DIET FOR 32 WK BEGINNING 1 WK POST CARCINOGEN TREATMENT (STUDY DURATION: 36 WK), Route [Inhibitor]: ORAL, Species: RAT, Strain/Sex: F344/MALE, Target Tissue: Type of Lesion: LUNG: ADENOMA, Dose [Carcinogen]: 1000 MG/KG BW DHPN TWICE, 1500 MG/KG BW THEN TWICE, 75 MG/KG BW DMAB 3 TIMES ADMINISTERED OVER FIRST 3 WK, Dose [Carcinogen]: 1000 MG/KG BW DHPN TWICE, 1500 MG/KG BW THEN TWICE, 75 MG/KG BW DMAB 3 TIMES ADMINISTERED OVER FIRST 3 WK, Promoter: NONE USED", "result": "7/14 (50%), 7/12 (58%), -16%, not significant"}, {"measurement": "tumour outcome (control, treated, inhibition, significance)", "setting": "Carcinogen: 2,2'-DIHYDROXY-DI-N-PROPYLNITROSAMINE, 53609-64-6, N-ETHYL-N-HYDROXYETHYLNITROSAMINE, 13147-25-6, 3,2'-DIMETHYL-4-AMINO-, Carcinogen: 2,2'-DIHYDROXY-DI-N-PROPYLNITROSAMINE, 53609-64-6, N-ETHYL-N-HYDROXYETHYLNITROSAMINE, 13147-25-6, 3,2'-DIMETHYL-4-AMINO-, Dose [Inhibitor]: 0, 1% IN DIET FOR 32 WK BEGINNING 1 WK POST CARCINOGEN TREATMENT (STUDY DURATION: 36 WK), Route [Inhibitor]: ORAL, Species: RAT, Strain/Sex: F344/MALE, Target Tissue: Type of Lesion: LUNG: CARCINOMA, Dose [Carcinogen]: 1000 MG/KG BW DHPN TWICE, 1500 MG/KG BW THEN TWICE, 75 MG/KG BW DMAB 3 TIMES ADMINISTERED OVER FIRST 3 WK, Promoter: NONE USED", "result": "1/14 (7%), 2/12 (17%), -143%, not significant"}, {"measurement": "tumour outcome (control, treated, inhibition, significance)", "setting": "Carcinogen: 2,2'-DIHYDROXY-DI-N-PROPYLNITROSAMINE, 53609-64-6, N-ETHYL-N-HYDROXYETHYLNITROSAMINE, 13147-25-6, 3,2'-DIMETHYL-4-AMINO-, Carcinogen: 2,2'-DIHYDROXY-DI-N-PROPYLNITROSAMINE, 53609-64-6, N-ETHYL-N-HYDROXYETHYLNITROSAMINE, 13147-25-6, 3,2'-DIMETHYL-4-AMINO-, Dose [Inhibitor]: 0, 1% IN DIET FOR 32 WK BEGINNING 1 WK POST CARCINOGEN TREATMENT (STUDY DURATION: 36 WK), Route [Inhibitor]: ORAL, Species: RAT, Strain/Sex: F344/MALE, Target Tissue: Type of Lesion: THYROID GLAND: CARCINOMA, Dose [Carcinogen]: 1000 MG/KG BW DHPN TWICE, 1500 MG/KG BW THEN TWICE, 75 MG/KG BW DMAB 3 TIMES ADMINISTERED OVER FIRST 3 WK, Promoter: NONE USED", "result": "3/14 (21%), 2/12 (17%), 19%, not significant"}, {"measurement": "tumour outcome (control, treated, inhibition, significance)", "setting": "Carcinogen: 2,2'-DIHYDROXY-DI-N-PROPYLNITROSAMINE, 53609-64-6, N-ETHYL-N-HYDROXYETHYLNITROSAMINE, 13147-25-6, 3,2'-DIMETHYL-4-AMINO-, Carcinogen: 2,2'-DIHYDROXY-DI-N-PROPYLNITROSAMINE, 53609-64-6, N-ETHYL-N-HYDROXYETHYLNITROSAMINE, 13147-25-6, 3,2'-DIMETHYL-4-AMINO-, Dose [Inhibitor]: 0, 1% IN DIET FOR 32 WK BEGINNING 1 WK POST CARCINOGEN TREATMENT (STUDY DURATION: 36 WK), Route [Inhibitor]: ORAL, Species: RAT, Strain/Sex: F344/MALE, Target Tissue: Type of Lesion: URINARY BLADDER: CARCINOMA, Dose [Carcinogen]: 1000 MG/KG BW DHPN TWICE, 1500 MG/KG BW THEN TWICE, 75 MG/KG BW DMAB 3 TIMES ADMINISTERED OVER FIRST THREE WEEKS, Promoter: NONE USED", "result": "1/14 (7%), 2/12 (17%), -143%, not significant"}, {"measurement": "outcome", "setting": "Carcinogen: 2,2'-DIHYDROXY-DI-N-PROPYLNITROSAMINE, 53609-64-6, N-ETHYL-N-HYDROXYETHYLNITROSAMINE, 13147-25-6, 3,2'-DIMETHYL-4-AMINO-, Carcinogen: 2,2'-DIHYDROXY-DI-N-PROPYLNITROSAMINE, 53609-64-6, N-ETHYL-N-HYDROXYETHYLNITROSAMINE, 13147-25-6, 3,2'-DIMETHYL-4-AMINO-, Dose [Inhibitor]: 0, 1% IN DIET FOR 32 WK BEGINNING 1 WK POST CARCINOGEN TREATMENT (STUDY DURATION: 36 WK), Route [Inhibitor]: ORAL, Species: RAT, Strain/Sex: F344/MALE, Target Tissue: Type of Lesion: URINARY BLADDER: PAPILLOMA, Dose [Carcinogen]: 1000 MG/KG BW DHPN TWICE, 1500 MG/KG BW THEN TWICE, 75 MG/KG BW DMAB 3 TIMES ADMINISTERED OVER FIRST 3 WK, Promoter: NONE USED", "result": "0/14 (0%), 3/12 (25%), -100%, not significant"}, {"measurement": "tumour outcome (control, treated, inhibition, significance)", "setting": "Carcinogen: 7,12-DIMETHYLBENZ(A)ANTHRACENE [57-97-6], Dose [Inhibitor]: 400 UG IN 200 µL ACETONE ONCE 24 HR AFTER THE LAST INJECTION OF IRON DEXTRAN (STUDY DURATION: 35 WKS), Route [Inhibitor]: DERMAL, Species: MOUSE, Strain/Sex: SWISS ALBINO/FEMALE, Target Tissue: Type of Lesion: SKIN: TUMORS, Dose [Carcinogen]: 40 UG IN 200 µL ACETONE DAILY FOR 5 D BEGINNING 1 HR AFTER TANNIC ACID TREATMENT (STUDY DURATION: 35 WKS), Promoter: IRON DEXTRAN [9004-66-4]", "result": "70%, 10%, 86%, not calculated"}, {"measurement": "tumour outcome (control, treated, inhibition, significance)", "setting": "Carcinogen: 7,12-DIMETHYLBENZ(A)ANTHRACENE [57-97-6], Dose [Inhibitor]: 400 UG IN 200 µL ACETONE ONCE (STUDY DURATION: 35 WKS), Route [Inhibitor]: DERMAL, Species: MOUSE, Strain/Sex: SWISS ALBINO/FEMALE, Target Tissue: Type of Lesion: SKIN: TUMORS, Dose [Carcinogen]: 40 UG IN 200 µL ACETONE DAILY FOR 5 D BEGINNING 1 HR AFTER TANNIC ACID TREATMENT (STUDY DURATION: 35 WKS)", "result": "40%, 0%, 100%, not calculated"}]}
